This assay deals with Cannabinoid receptor (Rattus norvegicus, UniProt Q9QZN9+P20272). Kind of assay: Tested for affinity of compound against cannabinoid receptor in rat forebrain membranes. It counts as cell membranes, Membrane.

`CCc1cc(C(C)(C)CCCCCCN=C=S)cc2c1[C@@H]1CC(CO)=CC[C@H]1C(C)(C)O2` gave an IC50 of 1.6 nM. In the case of `CC1=CC2c3c(O)cc(CCCCN=[N+]=[N-])cc3OC(C)(C)[C@H]2CC1` (some centres not stated) it was 31 nM.

In general, IC50 refers to the concentration that gives 50% inhibition. Read a high IC50 as lower potency.

The values are drawn from ChEMBL document CHEMBL1127398, “(-)-11-Hydroxy-7'-isothiocyanato-1',1'-dimethylheptyl-delta 8-THC: a novel, high-affinity irreversible probe for the cannabinoid receptor in the brain” (J Med Chem, 1994).
